According to ChEMBL document CHEMBL1140434, “1,2,4-Triazolo[1,5-a]quinoxaline as a versatile tool for the design of selective human A3 adenosine receptor antagonists: synthesis, biological evaluation, and molecular modeling studies of 2-(hetero)aryl- and 2-carboxy-substituted derivatives” (J Med Chem, 2005):

Experiments:
Adenosine receptor A1 [1] = biological target: T1, Adenosine receptor A1 (Bos taurus, UniProt P28190); assay: Displacement of [3H]CHA from adenosine A1 receptor in bovine cerebral cortical membranes; assay type: cell membranes
T1 sequence (P28190 whole entry): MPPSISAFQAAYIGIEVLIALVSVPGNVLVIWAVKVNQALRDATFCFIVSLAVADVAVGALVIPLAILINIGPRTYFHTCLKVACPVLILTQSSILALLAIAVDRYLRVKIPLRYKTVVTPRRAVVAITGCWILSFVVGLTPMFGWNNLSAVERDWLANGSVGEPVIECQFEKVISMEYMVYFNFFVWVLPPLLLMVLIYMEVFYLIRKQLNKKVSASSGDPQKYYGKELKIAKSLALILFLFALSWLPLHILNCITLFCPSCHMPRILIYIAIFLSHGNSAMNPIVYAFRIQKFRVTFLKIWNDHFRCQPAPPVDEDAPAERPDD

Adenosine receptor A1 [2] = biological target: T2, Adenosine receptor A1 (Homo sapiens, UniProt P30542); assay: Displacement of [3H]CHA from cloned human adenosine A1 receptor expressed in CHO cells; assay type: cell-based
T2 sequence (P30542 whole entry): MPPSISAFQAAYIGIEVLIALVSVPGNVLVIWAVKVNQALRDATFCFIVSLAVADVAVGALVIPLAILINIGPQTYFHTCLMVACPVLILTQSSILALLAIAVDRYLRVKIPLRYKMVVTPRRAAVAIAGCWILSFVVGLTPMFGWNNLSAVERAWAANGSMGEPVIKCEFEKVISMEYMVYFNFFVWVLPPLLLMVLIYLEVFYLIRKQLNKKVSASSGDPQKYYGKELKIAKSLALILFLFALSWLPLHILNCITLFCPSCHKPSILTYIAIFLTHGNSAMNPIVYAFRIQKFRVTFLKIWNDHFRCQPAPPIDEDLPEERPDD

Adenosine receptor A3 = biological target: T3, Adenosine receptor A3 (Homo sapiens, UniProt P0DMS8); assay: Displacement of [125I]AB-MECA from human adenosine A3 receptor expressed in CHO cells; assay type: cell-based
T3 sequence (P0DMS8 whole entry): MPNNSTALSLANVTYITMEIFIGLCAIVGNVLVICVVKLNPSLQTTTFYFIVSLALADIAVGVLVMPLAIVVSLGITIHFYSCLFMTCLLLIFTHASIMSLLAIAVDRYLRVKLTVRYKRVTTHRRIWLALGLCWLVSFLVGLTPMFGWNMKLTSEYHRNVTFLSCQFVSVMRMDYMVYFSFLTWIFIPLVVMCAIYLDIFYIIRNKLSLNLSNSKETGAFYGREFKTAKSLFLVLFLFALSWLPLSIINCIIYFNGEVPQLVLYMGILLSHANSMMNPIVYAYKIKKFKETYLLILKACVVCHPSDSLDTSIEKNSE

[3] = test system: Adenosine receptor A2a (Bos taurus); assay: Percentage inhibition of [3H]CGS 21680 binding to adenosine A2A receptor in bovine striatal membranes at 20 uM; details: Striatum, Membrane
[4] = biological target: T4, Adenosine receptor A1 (Bos taurus) (UniProt P28190); assay: Percentage inhibition of [3H]CHA binding to adenosine A1 receptor in bovine cerebral cortical membranes at 20 uM; assay type: cell membranes
T4 sequence (whole entry): T1 sequence (P28190 whole entry)

[5] = biological target: T5, Adenosine receptor A3 (Homo sapiens) (UniProt P0DMS8); assay: Percentage inhibition of [125I]AB-MECA binding to human adenosine A3 receptor expressed in CHO cells at 1 uM; assay type: cell-based
T5 sequence (whole entry): T3 sequence (P0DMS8 whole entry)

[6] = biological target: T6, Adenosine receptor A1 (Homo sapiens) (UniProt P30542); assay: Percentage inhibition of [3H]CHA binding to cloned human adenosine A1 receptor expressed in CHO cells at 10 uM; assay type: cell-based
T6 sequence (whole entry): T2 sequence (P30542 whole entry)

[7] = biological target: Adenosine receptor A2a (Homo sapiens) (UniProt P29274); assay: Percentage inhibition of [3H]NECA binding to cloned human adenosine A2A receptor expressed in CHO cells at 10 uM; assay type: cell-based
[8] = biological target: Adenosine receptors; A1 & A3 (Homo sapiens) (UniProt P30542+P0DMS8); assay: Selectivity for human adenosine A3 receptor over human adenosine A1 receptor; assay type: protein assay
[9] = Selectivity for human adenosine A3 receptor over human adenosine A2A receptor
[10] = biological target: Adenosine receptor A2a (Bos taurus); assay: Displacement of [3H]CGS 21680 from adenosine A2A receptor in bovine striatal membranes
[11] = biological target: T4, Adenosine receptor A1 (Bos taurus); assay: Percentage inhibition of [3H]CHA binding to adenosine A1 receptor in bovine cerebral cortical membranes at 34 uM; assay type: cell membranes
[12] = test system: Adenosine receptor A2a (Bos taurus); assay: Percentage inhibition of [3H]CGS 21680 binding to adenosine A2A receptor in bovine striatal membranes at 34 uM; details: Striatum, Membrane
[13] = biological target: T4, Adenosine receptor A1 (Bos taurus); assay: Percentage inhibition of [3H]CHA binding to adenosine A1 receptor in bovine cerebral cortical membranes at 10 uM; assay type: cell membranes

Chain of Adenosine receptor A2a (Homo sapiens) (P29274 whole entry): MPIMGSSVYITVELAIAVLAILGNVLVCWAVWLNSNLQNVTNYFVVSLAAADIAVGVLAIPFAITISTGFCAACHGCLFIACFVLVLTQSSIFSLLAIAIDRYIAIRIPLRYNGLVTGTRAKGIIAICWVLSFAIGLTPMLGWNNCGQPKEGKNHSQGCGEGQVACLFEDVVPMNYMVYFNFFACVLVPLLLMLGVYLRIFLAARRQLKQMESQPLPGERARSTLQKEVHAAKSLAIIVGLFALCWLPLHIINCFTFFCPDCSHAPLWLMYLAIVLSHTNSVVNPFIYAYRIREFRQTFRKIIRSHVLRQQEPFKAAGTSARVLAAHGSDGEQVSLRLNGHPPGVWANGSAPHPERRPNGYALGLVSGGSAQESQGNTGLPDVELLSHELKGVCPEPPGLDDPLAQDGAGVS

Row | Compound | Ki (Adenosine receptor A1 [1]) | Ki (Adenosine receptor A3) | inhibition [3] | inhibition [4] | also measured
1 | COc1ccc(-c2nc3c(=O)[nH]c4ccc(Cl)cc4n3n2)cc1 | 1060 nM | 25.8 nM | – | – | Ki (Adenosine receptor A1 [2]): 3.29 nM
2 | Cc1ccc2c(c1)n1nc(-c3ccccc3)nc1c(=O)n2C | 508 nM | 308 nM | – | – | –
3 | O=C(NCc1ccccc1)c1nc2c(=O)[nH]c3ccccc3n2n1 | 578 nM | 82 nM | – | – | Ki (Adenosine receptor A1 [2]): 205 nM
4 | CCOC(=O)c1nc2c(=O)[nH]c3ccc(C)cc3n2n1 | – | 108 nM | – | – | –
5 | Oc1nc2ccccc2n2nc(-c3ccccc3)nc12 | – | – | 7% | – | –
6 | Cn1c(=O)c2nc(-c3ccccc3)nn2c2cc(Cl)ccc21 | – | – | 0% | 18% | inhibition [5]: 19%
7 | CCOC(=O)c1nc2c(=O)[nH]c3ccc(Cl)cc3n2n1 | – | 557 nM | – | – | –
8 | CCOC(=O)c1nc2c(O)nc3cc(Cl)ccc3n2n1 | – | 340 nM | 15.2% | 48% | –
9 | Cn1c(=O)c2nc(-c3ccccc3)nn2c2ccccc21 | 1080 nM | – | 8.8% | – | inhibition [5]: 30%
10 | Oc1nc2ccccc2n2nc(-c3ccco3)nc12 | – | 33 nM | – | – | Ki (Adenosine receptor A1 [2]): 1930 nM
11 | CCOC(=O)c1nc2c(O)nc3ccccc3n2n1 | – | 70.8 nM | 3.6% | 26% | inhibition [6]: 5%; inhibition [7]: 0%; Ratio Ki [8]: > 150; Ratio Ki [9]: > 150
12 | CCOC(=O)c1nc2c(N)nc3ccc(Cl)cc3n2n1 | 5 nM | – | – | – | inhibition [5]: 15%; Ki [10]: 4.9 µM
13 | O=C(O)c1nc2c(O)nc3ccccc3n2n1 | – | – | – | – | inhibition [11]: 10%; inhibition [5]: 6.4%; inhibition [12]: 0%
14 | Oc1nc2ccc(Cl)cc2n2ncnc12 | – | – | 23% | 0% | inhibition [5]: 18.8%
15 | CCOC(=O)c1nc2c(=O)n(CC)c3ccccc3n2n1 | – | – | – | – | inhibition [11]: 13.3%; inhibition [5]: 0%; inhibition [12]: 20.5%
16 | COc1ccc(-c2nc3c(O)nc4ccc(C)cc4n3n2)cc1 | 1440 nM | 2.5 nM | – | – | Ki (Adenosine receptor A1 [2]): 2.86 nM; Ratio Ki [8]: 1.1; inhibition [12]: 5%
17 | Nc1nc2ccc(Cl)cc2n2nc(-c3ccccc3)nc12 | 50 nM | 91.4 nM | – | – | –
18 | CCOC(=O)c1nc2c(=O)[nH]c3cc(N)ccc3n2n1 | – | 354 nM | – | – | –
19 | COc1ccc(-c2nc3c(O)nc4ccccc4n3n2)cc1 | – | – | – | – | inhibition [11]: 0%; inhibition [6]: 32%; inhibition [7]: 49%
20 | O=c1[nH]c2ccc(Cl)cc2n2nc(-c3cccs3)nc12 | – | 257 nM | – | – | –
21 | CC(C)OC(=O)c1nc2c(O)nc3ccccc3n2n1 | – | 420 nM | 2.9% | 0% | –
22 | O=c1[nH]c2ccc(Cl)cc2n2nc(-c3ccsc3)nc12 | 1000 nM | 126 nM | – | – | –
23 | Oc1nc2ccc(Cl)cc2n2nc(-c3ccco3)nc12 | 3660 nM | 6 nM | – | – | Ki (Adenosine receptor A1 [2]): 2740 nM; inhibition [7]: 33%; Ratio Ki [8]: 457; Ratio Ki [9]: > 1700; Ki [10]: 5.16 µM

Row | Compound | Ki (Adenosine receptor A1 [1]) | Ki (Adenosine receptor A3) | inhibition [3] | inhibition [4] | also measured
24 | Cc1ccc2[nH]c(=O)c3nc(-c4ccccc4)nn3c2c1 | 525 nM | 111 nM | – | – | –
25 | Oc1nc2ccc(Cl)cc2n2nc(-c3cccs3)nc12 | – | – | – | – | inhibition [11]: 54.2%
26 | CCOC(=O)c1nc2c(=O)n(O)c3ccccc3n2n1 | – | – | – | – | inhibition [11]: 6.9%; inhibition [5]: 20%; inhibition [12]: 2%
27 | Cn1c(=O)c2ncnn2c2cc(Cl)ccc21 | – | – | 8.9% | 11% | inhibition [5]: 0%
28 | CCOC(=O)c1nc2c(O)nc3ccc(N)cc3n2n1 | – | 25 nM | 32.7% | 64% | inhibition [6]: 33%; inhibition [7]: 22%; Ratio Ki [8]: > 400; Ratio Ki [9]: > 400
29 | CCOC(=O)c1nc2c(O)nc3ccc(Cl)cc3n2n1 | – | – | – | 20% | inhibition [12]: 7%
30 | Oc1nc2ccc(Cl)cc2n2nc(-c3ccccc3)nc12 | 2400 nM | 163 nM | – | – | –
31 | COc1ccc(-c2nc3c(N)nc4ccc(Cl)cc4n3n2)cc1 | 150 nM | 2.9 nM | – | – | Ki (Adenosine receptor A1 [2]): 36 nM; inhibition [7]: 21%
32 | CCOC(=O)c1nc2c(O)nc3ccc(C)cc3n2n1 | – | – | 6.5% | 41% | –
33 | Oc1nc2ccc(Cl)cc2n2nc(-c3ccoc3)nc12 | 1950 nM | 78 nM | – | – | Ki (Adenosine receptor A1 [2]): 125 nM; Ratio Ki [8]: 1.6; inhibition [12]: 25.3%
34 | O=C(NCc1ccccc1)c1nc2c(O)nc3ccccc3n2n1 | – | – | 27% | – | Ratio Ki [8]: 2.5
35 | O=C(OCc1ccccc1)c1nc2c(O)nc3ccccc3n2n1 | 3220 nM | 51.6 nM | 47% | – | inhibition [6]: 33%; inhibition [7]: 27%; Ratio Ki [8]: > 200; Ratio Ki [9]: > 200
36 | CCOC(=O)c1nc2c(=O)[nH]c3ccc(NC(C)=O)cc3n2n1 | 14200 nM | 673 nM | – | – | –
37 | Cc1ccc2nc(O)c3nc(-c4ccccc4)nn3c2c1 | – | – | 25% | – | –
38 | O=c1[nH]c2ccccc2n2nc(-c3ccccc3)nc12 | 268 nM | 396 nM | – | – | –
39 | Oc1nc2ccccc2n2ncnc12 | – | – | 20% | 29% | inhibition [5]: 53%
40 | NC(=O)c1nc2c(O)nc3ccccc3n2n1 | – | – | 17% | 15% | inhibition [5]: 32%
41 | Oc1nc2ccccc2n2nc(-c3cccs3)nc12 | 2940 nM | 2 nM | – | – | Ki (Adenosine receptor A1 [2]): 2 nM; Ratio Ki [8]: 1; inhibition [12]: 54%
42 | CCOC(=O)c1nc2c(O)nc3ccc([N+](=O)[O-])cc3n2n1 | – | – | 7.4% | – | inhibition [13]: 58%; inhibition [5]: 0%
43 | CCOC(=O)c1nc2c(O)nc3cc(N)ccc3n2n1 | – | – | 9% | 43% | –
44 | CCOC(=O)c1nc2c(=O)n(C(=O)OCC)c3ccccc3n2n1 | – | 28.2 nM | 4% | 14% | inhibition [6]: 12%; inhibition [7]: 9%; Ratio Ki [8]: > 350; Ratio Ki [9]: > 350
45 | CCOC(=O)c1nc2c(=O)n(C)c3ccccc3n2n1 | – | 820 nM | – | 6.4% | –
46 | CCOC(=O)c1nc2c(=O)n(C)c3ccc(Cl)cc3n2n1 | – | – | 0% | 8% | inhibition [5]: 60%
